Data: PubChem BioAssay AID220 (DTP/NCI, 2004)
Values joined by “and” are separate entries in the source; they are usually repeats but may differ in a detail not shown here. Equal entries are not always repeated. Inconclusive results are not listed.

Test system: CD8F1 mice, subcutaneous mammary adenocarcinoma, T/C%
Experiment: NCI In Vivo Anticancer Drug Screen. Data for tumor model Mammary Adenocarcinoma CD8F1 (subcutaneous) in CD8F1
Conditions: higher = larger tumour
How it was run: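 Ratio of treated to vehicle-control outcome, based on either survival or tumor size, in mice bearing transplantable tumors given the test compound.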

[1] = endpoint: median tumor weight change, dose: 10.0 mg/kg/injection, schedule: Q01DX001 (ip), vehicle: saline

With `O=[N+]([O-])/C=C\c1ccc2c(c1)OCO2` the T/C (endpoint: median tumor weight (est.), dose: 6.25 mg/kg/injection, schedule: Q07DX005 (ip), vehicle: Klucel (hydroxypropylcellulose) (HPC)) was 102 % of control, the T/C (endpoint: median tumor weight (est.), dose: 12.5 mg/kg/injection, schedule: Q07DX005 (ip), vehicle: Klucel (hydroxypropylcellulose) (HPC)) was 59 % of control and the T/C (endpoint: median tumor weight (est.), dose: 25.0 mg/kg/injection, schedule: Q07DX005 (ip), vehicle: Klucel (hydroxypropylcellulose) (HPC)) was 86 % of control. For the same molecule, the T/C (endpoint: median tumor weight (est.), dose: 50.0 mg/kg/injection, schedule: Q07DX005 (ip), vehicle: Klucel (hydroxypropylcellulose) (HPC)) was 60 % of control, the T/C (endpoint: median tumor weight (est.), dose: 100.0 mg/kg/injection, schedule: Q07DX005 (ip), vehicle: Klucel (hydroxypropylcellulose) (HPC)) was 55 % of control and the T/C (endpoint: median tumor weight (est.), dose: 200.0 mg/kg/injection, schedule: Q07DX005 (ip), vehicle: Klucel (hydroxypropylcellulose) (HPC)) was 83 % of control.
`C/C=C(\C)c1cc(=O)c2c(C)cc3c(c2o1)C(=O)c1c(O)c(C2CC(C)(N(C)C)C(O)C(C)O2)cc(C2CC(N(C)C)C(O)C(C)O2)c1C3=O` (configuration not stated) was tested, and the T/C (endpoint: median tumor weight change, dose: 0.16 mg/kg/injection, schedule: Q01DX001 (ip), vehicle: saline) was 78 % of control, the T/C (endpoint: median tumor weight change, dose: 0.31 mg/kg/injection, schedule: Q01DX001 (ip), vehicle: saline) was 51 % of control and the T/C (endpoint: median tumor weight change, dose: 0.62 mg/kg/injection, schedule: Q01DX001 (ip), vehicle: saline) was 52 % of control. For the same molecule, the T/C (endpoint: median tumor weight change, dose: 2.5 mg/kg/injection, schedule: Q01DX001 (ip), vehicle: suspension in saline) was 61 % of control, the T/C (endpoint: median tumor weight change, dose: 5.0 mg/kg/injection, schedule: Q01DX001 (ip), vehicle: suspension in saline) was 42 % of control and the T/C [1] was -9 % of control.
`CCN(CC)CCCNc1nccc2c(C)c3[nH]c4ccncc4c3cc12` was tested, and the T/C (endpoint: median tumor weight change, dose: 25.0 mg/kg/injection, schedule: Q01DX001 (ip), vehicle: other) was 29 % of control and 32 % of control.
`N[C@@H](Cc1ccc(N(CCCl)CCCl)cc1)C(=O)O` was tested, and the T/C (endpoint: mean tumor weight, dose: 1.25 mg/kg/injection, schedule: Q01DX009 (ip), vehicle: saline) was 10 % of control, the T/C (endpoint: mean tumor weight, dose: 2.5 mg/kg/injection, schedule: Q01DX009 (ip), vehicle: saline) was 3 % of control and the T/C (endpoint: mean tumor weight, dose: 4.0 mg/kg/injection, schedule: Q07DX006 (ip), vehicle: saline) was 12 % of control. For the same molecule, the T/C (endpoint: mean tumor weight, dose: 5.0 mg/kg/injection, schedule: Q07DX006 (ip), vehicle: saline) was 3 % of control, the T/C (endpoint: mean tumor weight, dose: 8.0 mg/kg/injection, schedule: Q07DX006 (ip), vehicle: saline) was 1 % of control and the T/C (endpoint: median tumor weight (est.), dose: 1.0 mg/kg/injection, schedule: Q07DX005 (ip), vehicle: Klucel (hydroxypropylcellulose) (HPC)) was 91 % of control. The T/C (endpoint: median tumor weight (est.), dose: 1.0 mg/kg/injection, schedule: Q07DX005 (ip), vehicle: suspension in saline) was 60 % of control, the T/C (endpoint: median tumor weight (est.), dose: 2.0 mg/kg/injection, schedule: Q01DX001 (ip), vehicle: suspension in saline) was 93 % of control and 114 % of control and the T/C (endpoint: median tumor weight (est.), dose: 2.0 mg/kg/injection, schedule: Q07DX005 (ip), vehicle: Klucel (hydroxypropylcellulose) (HPC)) was 42 % of control. The T/C (endpoint: median tumor weight (est.), dose: 3.0 mg/kg/injection, schedule: Q07DX005 (ip), vehicle: suspension in saline) was 6 % of control, the T/C (endpoint: median tumor weight (est.), dose: 4.0 mg/kg/injection, schedule: Q01DX001 (ip), vehicle: suspension in saline) was 62 % of control and 70 % of control and the T/C (endpoint: median tumor weight (est.), dose: 4.0 mg/kg/injection, schedule: Q07DX005 (ip), vehicle: Klucel (hydroxypropylcellulose) (HPC)) was 16 % of control. The T/C (endpoint: median tumor weight (est.), dose: 4.0 mg/kg/injection, schedule: Q07DX005 (ip), vehicle: suspension in saline) was 12 % of control, the T/C (endpoint: median tumor weight (est.), dose: 5.0 mg/kg/injection, schedule: Q07DX005 (ip), vehicle: suspension in saline) was 1 % of control and the T/C (endpoint: median tumor weight (est.), dose: 5.3 mg/kg/injection, schedule: Q01DX001 (ip), vehicle: suspension in saline) was 15 % of control. The T/C (endpoint: median tumor weight (est.), dose: 8.0 mg/kg/injection, schedule: Q07DX005 (ip), vehicle: Klucel (hydroxypropylcellulose) (HPC)) was 9 % of control, the T/C (endpoint: median tumor weight (est.), dose: 8.0 mg/kg/injection, schedule: Q07DX005 (ip), vehicle: suspension in saline) was 1 % of control and the T/C (endpoint: median tumor weight (est.), dose: 12.0 mg/kg/injection, schedule: Q01DX001 (ip), vehicle: suspension in saline) was 7 % of control. For the same molecule, the T/C (endpoint: median tumor weight (est.), dose: 16.0 mg/kg/injection, schedule: Q01DX001 (ip), vehicle: suspension in saline) was 8 % of control and 18 % of control, the T/C (endpoint: median tumor weight (est.), dose: 18.0 mg/kg/injection, schedule: Q01DX001 (ip), vehicle: suspension in saline) was 7 % of control and the T/C (endpoint: median tumor weight change, dose: 3.0 mg/kg/injection, schedule: Q01DX001 (ip), vehicle: saline) was 72 % of control. For the same molecule, the T/C (endpoint: median tumor weight change, dose: 5.0 mg/kg/injection, schedule: Q01DX001 (ip), vehicle: saline) was 4 % of control, the T/C [1] was -6 % of control and the T/C (endpoint: median tumor weight change, dose: 20.0 mg/kg/injection, schedule: Q01DX001 (ip), vehicle: saline) was -82 % of control.
